Results from doi:10.1101/2024.08.25.609621 (bioRxiv, 2024).
pIC50, pKi: −log10 of the molar value. Where “and” joins values, the source holds several entries; their conditions need not be identical. Equal values may be shown once. Entries after “also recorded” stand apart in the source; their conditions may differ. Read-outs that look alike come from different tables or passages of the source.

Key:
[1] = target: SARS-CoV-2 NSP3 macrodomain (Mac1) (Severe acute respiratory syndrome coronavirus 2, UniProt P0DTD1); assay: biochemical; format: binding; details: for Hill slope: HTRF dose-response fit, Mac1; for SARS CoV-2 macrodomain HTRF assay: Hillslope: dose-response fit
[2] = target: SARS-CoV-2 NSP3 macrodomain (Mac1), P43 crystal form (Severe acute respiratory syndrome coronavirus 2, UniProt P0DTD1); format: binding; details: for 1-BDC: PanDDA background density correction; for Total number of conformations: ligand conformations modeled in Mac1 crystal structure; for X-ray crystallography: Binding site: site where the ligand is bound in the X-ray crystal structure
[3] = crystal soak concentration 10 mM, DMSO background map, event 1
[4] = crystal soak concentration 10 mM, P43 crystals
[5] = crystal soak concentration 10 mM, DMSO background map
[6] = Single dose, concentration 200 μM, read-out: SARS CoV-2 macrodomain HTRF assay: Average % competition
[7] = preliminary screen, compound at 200 μM, mean of 3-4 technical replicates, read-out: % competition in HTRF assay
[8] = crystal soak, soak concentration 10 mM
[9] = crystal soak, soak concentration 10 mM, TRUE = ligand hit
[10] = occupancy estimate from PanDDA 1-BDC
[11] = soak concentration 10 mM, DMSO background map
[12] = occupancy estimate from PanDDA BDC
[13] = Dose-response, SARS CoV-2 macrodomain HTRF assay, read-out: IC50
[14] = Single dose, 200 μM, mean of three technical replicates, read-out: Average % competition
[15] = TRUE = crystal structure with ligand determined
[16] = crystal soak concentration 20 mM, DMSO background map
[17] = crystal soak concentration 20 mM, DMSO background map, event 1
[18] = crystal soak concentration 20 mM, P43 crystals
[19] = site of Mac1 where ligand bound in crystal structure
[20] = crystal soak 10 mM, P43 crystals
[21] = crystal soak 10 mM, DMSO background map
[22] = X-ray crystal structure determined (TRUE)
[23] = site of ligand in X-ray crystal structure

Row | SMILES | PanDDA run, DMSO background map: 1-BDC ([2]; DMSO background map, event 1) | Hill slope [1] | SARS CoV-2 macrodomain HTRF assay: Hillslope [1] | inhibition at 200 µM [1, 7] [%] | 1-BDC [2] | Total number of conformations [2] | 2*(1-BDC) (%) [2, 10] [%] | X-ray crystallography: Binding site [2] | Occupancy difference (refined_occupancy - 2*(1-BDC)) [2] | Refined ligand occupancy (%) [2] [%] | 2*(1-BDC) (%) [2, 12] [%] | other results
1 | CC1CC(C(=O)O)CN(C(=O)CSc2ccc(O)cc2)C1 (centres unmarked) [AVI-334] | 0.12 | – | – | – | – | – | – | – | – | – | – | Average % competition ([1]; Single dose, 200 μM, mean of three technical replicates): 25%; PanDDA run, DMSO background map: 1-BDC [2, 3]: 0.07; Pandda run, overall: Hit [2, 4]: TRUE; Pandda run, overall: Modeling comment [2, 4]: Weak density, not modeled; PanDDA run, DMSO background map: Hit [2, 5]: TRUE
2 | OC[C@@H]1C[C@H](O)CN1c1ncnc2[nH]ccc12 [AVI-610] | – | 1.2 | 1.2 | 56 | 0.21 | 1 | 42 | Adenosine | – | – | – | inhibition at 200 µM [1, 6]: 56%; Pandda run, overall: Modeled [2, 8]: TRUE; Pandda run, overall: Hit [2, 9]: TRUE; PanDDA run, DMSO background map: 1-BDC [2, 11]: 0.34 and 0.31 and 0.21 and 0.26; PanDDA run, DMSO background map: Hit [2, 11]: TRUE
3 | OC1(CNc2ncnc3[nH]ccc23)CCCCC1 [AVI-6217] | 0.22 | 1.1 | 1.1 | – | 0.22 | 1 | – | Adenosine | 16 | 60 | 44 | –
4 | O=C(Nc1ccsc1C(=O)O)c1ccc2c(c1)OCO2 [AVI-316] | – | – | – | 29 | 0.07 | 1 | 14 | – | – | – | – | pIC50 [1, 13]: < 3.00; inhibition at 200 µM [1, 14]: 29%; X-ray crystal structure [2, 15]: TRUE; PanDDA run, DMSO background map: 1-BDC [2, 3]: 0.07; Pandda run, overall: Hit [2, 4]: TRUE; Pandda run, overall: Modeled [2, 4]: TRUE; PanDDA run, DMSO background map: Hit [2, 5]: TRUE; PanDDA run, DMSO background map: Modeled [2, 5]: TRUE; PanDDA run, DMSO background map: Hit [2, 16]: TRUE; PanDDA run, DMSO background map: 1-BDC [2, 17]: 0.12; Pandda run, overall: Hit [2, 18]: TRUE; Pandda run, overall: Modeling comment [2, 18]: Duplicate, not modeled; Binding site [2, 19]: Adenosine
5 | CC1(C)C[C@@H](CO)N(c2ncnc3[nH]ccc23)C1.O=C(O)C(F)(F)F [AVI-3704] | – | 1.1 | 1.1 | 90 | 0.33 | 1 | 66 | Adenosine | – | – | – | inhibition at 200 µM [1, 6]: 90%; Pandda run, overall: Modeled [2, 8]: TRUE; Pandda run, overall: Hit [2, 9]: TRUE; PanDDA run, DMSO background map: 1-BDC [2, 11]: 0.33; PanDDA run, DMSO background map: Hit [2, 11]: TRUE
6 | CCC(O)[C@H]1CCCN1c1ncnc2[nH]ccc12 (some centres unmarked) [AVI-3666] | – | 1.3 | 1.3 | 87 | 0.3 | 1 | 60 | Adenosine | – | – | – | inhibition at 200 µM [1, 6]: 87%; pIC50 ([1]; confirmatory dose-response, best fit value of 3-4 technical replicates, Fig. S3 prints the 95% confidence interval in brackets, read-out: HTRF IC50): 4.34; pKi ([1]; dose-response, read-out: SARS CoV-2 macrodomain HTRF assay: Ki): 4.37; Pandda run, overall: Hit [2, 20]: TRUE; Pandda run, overall: Modeled [2, 20]: TRUE; PanDDA run, DMSO background map: 1-BDC [2, 21]: 0.3; PanDDA run, DMSO background map: Hit [2, 21]: TRUE
7 | O[C@H]1COC[C@@H]1Nc1ncnc2[nH]ccc12 [AVI-1444, (3R,4S)-4-((7H-pyrrolo[2,3-d]pyrimidin-4-yl)amino)tetrahydrofuran-3-ol] | – | – | – | – | 0.08 | 1 | 16 | – | – | – | – | pIC50 ([1]; SARS CoV-2 macrodomain HTRF assay, dose-response, read-out: IC50): < 3.00; X-ray crystal structure [2, 22]: TRUE; Pandda run, overall: Modeled [2, 8]: TRUE; Pandda run, overall: Hit [2, 9]: TRUE; Binding site [2, 23]: Adenosine; PanDDA run, DMSO background map: 1-BDC [2, 11]: 0.08 and 0.11; PanDDA run, DMSO background map: Hit [2, 11]: TRUE
8 | Cc1c[nH]c2ncnc(NCC3(O)CCSCC3)c12 [AVI-4195, 4-(((5-methyl-7H-pyrrolo[2,3-d]pyrimidin-4-yl)amino)methyl)tetrahydro-2H-thiopyran-4-ol] | – | 1.2 | 1.2 | – | 0.14 | 1 | – | Adenosine | 0 | 28 | 28 | PanDDA run, DMSO background map: 1-BDC [2, 3]: 0.14; Pandda run, overall: Hit [2, 4]: TRUE; Pandda run, overall: Modeled [2, 4]: TRUE; Pandda run, overall: Modeling comment [2, 4]: Duplicate, not modeled; PanDDA run, DMSO background map: Hit [2, 5]: TRUE; PanDDA run, DMSO background map: Modeled [2, 5]: TRUE
9 | CC(C)(O)C1C2CCC2CN1c1ncnc2[nH]ccc12 (centres unmarked) [AVI-4128] | – | 1.2 | 1.2 | – | 0.2 | 1 | – | Adenosine | 20 | 60 | 40 | Comment ([2]; comment on ligand modeling / Phe132 loop density): Weak density for open conformation; PanDDA run, DMSO background map: 1-BDC [2, 3]: 0.27 and 0.2; Pandda run, overall: Hit [2, 4]: TRUE; Pandda run, overall: Modeled [2, 4]: TRUE; Pandda run, overall: Modeling comment [2, 4]: Duplicate, not modeled; also recorded: Weak density for open conformation; PanDDA run, DMSO background map: Hit [2, 5]: TRUE; PanDDA run, DMSO background map: Modeled [2, 5]: TRUE
10 | CN(C)CC(CO)Nc1ncnc2[nH]ccc12 (centres unmarked) [AVI-3671] | – | – | – | – | 0.17 | 1 | 34 | – | – | – | – | % competition in HTRF assay ([1]; preliminary screen, compound at 200 μM, mean of 3-4 technical replicates): neither had detectable binding; X-ray crystal structure [2, 22]: TRUE; Pandda run, overall: Hit [2, 20]: TRUE; Pandda run, overall: Modeled [2, 20]: TRUE; PanDDA run, DMSO background map: 1-BDC [2, 21]: 0.17; PanDDA run, DMSO background map: Hit [2, 21]: TRUE; Binding site [2, 23]: Adenosine
11 | O=C(O)C(c1ccccc1)n1sc2ccccc2c1=O (centres unmarked) [AVI-288] | – | – | – | 21 | 0.37 | 1 | – | – | 0 | 74 | 74 | pIC50 [1, 13]: < 3.00; inhibition at 200 µM [1, 14]: 21%; X-ray crystal structure [2, 15]: TRUE; PanDDA run, DMSO background map: Hit [2, 16]: TRUE; PanDDA run, DMSO background map: Modeled [2, 16]: TRUE; PanDDA run, DMSO background map: 1-BDC [2, 17]: 0.37; Pandda run, overall: Hit [2, 18]: TRUE; Pandda run, overall: Modeled [2, 18]: TRUE; Pandda run, overall: Modeling comment [2, 8]: Duplicate, not modeled; Pandda run, overall: Hit ([2]; crystal soak, soak concentration 10 mM, P43 crystals, TRUE = ligand-binding event identified): TRUE; PanDDA run, DMSO background map: Hit ([2]; crystal soak, soak concentration 10 mM, DMSO background map): TRUE; PanDDA run, DMSO background map: 1-BDC ([2]; crystal soak, soak concentration 10 mM, DMSO background map, event 1): 0.26; Binding site [2, 19]: Adenosine
12 | O[C@H]1CC[C@H]2CCN(c3ncnc4[nH]ccc34)[C@H]21 [AVI-5997] | 0.28 and 0.29 | 1.2 | 1.2 | – | 0.29 | 1 | – | Adenosine | 12 | 70 | 58 | –
13 | C[C@H]1CC[C@H](CO)N(c2ncnc3[nH]ccc23)C1 (racemic) [AVI-4063] | – | 1.1 | 1.1 | – | 0.16 | 1 | – | Adenosine | 18 | 50 | 32 | Hit (PanDDA run, overall) [2, 20]: TRUE; Hit (PanDDA run, DMSO background map) [2, 21]: TRUE; 1-BDC (PanDDA run, DMSO background map) ([2]; crystal soak 10 mM, DMSO background map, event 1): 0.21 and 0.16
14 | CC1CCC(O)(CNc2ncnc3[nH]ccc23)CC1 (centres unmarked) [AVI-4312] | 0.22 and 0.3 | 1.2 | 1.2 | – | 0.22 | 1 | – | Adenosine | 0 | 44 | 44 | –
15 | OC1(CNc2ncnc3[nH]ccc23)COC2CC1C2 (centres unmarked) [AVI-4313] | 0.19 and 0.2 | 1.2 | 1.2 | – | 0.19 | 1 | – | Adenosine | 0 | 38 | 38 | –
16 | OC1(CNc2ncnc3[nH]ccc23)CCCSC1 (centres unmarked) [AVI-4322] | 0.21 | 1.3 | 1.3 | – | 0.21 | 1 | – | Adenosine | 0 | 42 | 42 | –
